Measurements from PMC10284832, “Cyclic di-AMP traps proton-coupled K^+ transporters of the KUP family in an inward-occluded conformation” (Nature Communications, 2023).
Values belong to the molecule of their own block, whether it stands above or below them.

Key:
[1] = target: T1, KimA (Bacillus subtilis, UniProt P96589, R337A); test: whole-cell K+ uptake in E. coli LB2003 (flame AAS); type: cell-based; details: c-di-AMP made in the cells by co-expressed CdaA (concentration unknown) versus inactive CdaA D171N; 200 mM HEPES TEA pH 7.5; allosteric site in cytosolic domain
T1 construct: full-length membrane protein, homodimer with swapped cytosolic domains; plasmid pB24KimA, expressed in E. coli LB2003

[2] = target: T2, KimA (Bacillus subtilis, UniProt P96589); test: differential scanning fluorometry (CPM dye); type: binding; details: three-fold molar excess c-di-AMP over KimA; KimA purified from cells co-producing CdaA, in DDM; shift fits 48.1 °C (KimA without CdaA) to 54.7 °C; text calls it a further increase although the CdaA sa
T2 construct: full-length membrane protein, homodimer with swapped cytosolic domains; plasmid pB24KimA, expressed in E. coli LB2003
T2 sequence (P96589 1-607): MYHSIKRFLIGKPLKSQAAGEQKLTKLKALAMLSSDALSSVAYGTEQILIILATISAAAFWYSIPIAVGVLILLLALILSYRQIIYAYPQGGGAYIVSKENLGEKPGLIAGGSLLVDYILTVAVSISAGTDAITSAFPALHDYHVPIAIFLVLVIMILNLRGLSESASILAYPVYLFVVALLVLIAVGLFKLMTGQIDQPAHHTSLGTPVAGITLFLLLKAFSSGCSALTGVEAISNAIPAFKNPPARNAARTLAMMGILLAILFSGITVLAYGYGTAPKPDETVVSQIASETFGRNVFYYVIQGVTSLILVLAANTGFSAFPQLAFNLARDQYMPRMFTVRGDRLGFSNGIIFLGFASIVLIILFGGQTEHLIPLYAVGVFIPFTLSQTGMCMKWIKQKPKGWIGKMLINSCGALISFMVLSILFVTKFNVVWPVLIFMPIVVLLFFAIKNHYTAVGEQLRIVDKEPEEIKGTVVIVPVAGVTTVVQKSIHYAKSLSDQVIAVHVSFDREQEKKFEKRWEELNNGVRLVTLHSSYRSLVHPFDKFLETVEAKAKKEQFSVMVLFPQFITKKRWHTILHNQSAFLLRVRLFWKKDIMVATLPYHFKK

[3] = target: T2, KimA; test: cryo-EM structure ([…] Å in DDM, […] Å in amphipols); type: binding; details: two c-di-AMP per dimer, cytosolic domain sites; co-produced with CdaA; ten-fold molar excess added in DDM
[4] = target: T3, KimA (Bacillus subtilis, UniProt P96589, N237A); test: differential scanning fluorometry (CPM dye); details: c-di-AMP binding to variant; method inferred from the DSF section
T3 construct: full-length membrane protein, homodimer with swapped cytosolic domains; plasmid pB24KimA, expressed in E. coli LB2003

[5] = target: T2, KimA; test: whole-cell K+ uptake in E. coli LB2003 (flame AAS); type: cell-based; details: c-di-AMP made in the cells by co-expressed CdaA (concentration unknown) versus inactive CdaA D171N; 200 mM HEPES TEA pH 7.5; allosteric site in cytosolic domain
[6] = target: the molecule itself; test: cryo-EM structure; KimA in DDM at 4.0 mg/ml, purified after co-production with CdaA, ten-fold molar excess of c-di-AMP added after purification; 3.3 Å map with C2 symmetry
[7] = target: the molecule itself; test: cryo-EM structure; KimA reconstituted in amphipols (PMAL C8) at 2.25 mg/ml, purified after co-expression with cdaA; 50 mM NaCl, 50 mM KCl, 20 mM Tris-HCl pH 8; 3.8 Å map with C2 symmetry

T3 sequence (P96589 whole entry N237A, the tested form may be a part): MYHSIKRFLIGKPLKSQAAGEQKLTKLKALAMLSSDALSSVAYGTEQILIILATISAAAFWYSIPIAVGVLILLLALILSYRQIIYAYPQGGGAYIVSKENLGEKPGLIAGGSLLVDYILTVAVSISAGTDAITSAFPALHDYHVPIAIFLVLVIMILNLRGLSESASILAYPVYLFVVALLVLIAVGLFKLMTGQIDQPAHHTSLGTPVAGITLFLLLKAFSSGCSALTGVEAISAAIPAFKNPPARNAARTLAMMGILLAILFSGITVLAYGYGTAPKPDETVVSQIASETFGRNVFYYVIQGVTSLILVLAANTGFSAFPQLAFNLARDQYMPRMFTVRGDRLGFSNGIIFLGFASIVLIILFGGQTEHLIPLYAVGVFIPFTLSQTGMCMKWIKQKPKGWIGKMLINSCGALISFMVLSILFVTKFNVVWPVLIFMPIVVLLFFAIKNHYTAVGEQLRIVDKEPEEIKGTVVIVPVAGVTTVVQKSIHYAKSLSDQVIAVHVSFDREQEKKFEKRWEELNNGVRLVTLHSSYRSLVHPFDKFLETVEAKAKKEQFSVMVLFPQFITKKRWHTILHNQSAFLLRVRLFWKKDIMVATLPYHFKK
T1 sequence (P96589 whole entry R337A, the tested form may be a part): as the sequence (P96589 whole entry N237A, the tested form may be a part) above, with A237N, R337A counted along it

% reduction of Vmax [1]: ~ 44% | dTm [2]: 6.6 °C | % reduction of Vmax [5]: ~ 64%
Molecule: Nc1ncnc2c1ncn2[C@@H]1O[C@@H]2COP(=O)(O)O[C@H]3[C@@H](O)[C@H](n4cnc5c(N)ncnc54)O[C@@H]3COP(=O)(O)O[C@H]2[C@H]1O [c-di-AMP]
cryo-EM structure (3.3 Å in DDM, 3.8 Å in amphipols) [3]: two non-protein densities in the CDs, which were modelled as c-di-AMP | Tm [4]: while binding of c-di-AMP was still possible

B1: K+/H+ symporter KimA from B. subtilis, in DDM, with bound c-di-AMP (natural protein)
chain: MYHSIKRFLIGKPLKSQAAGEQKLTKLKALAMLSSDALSSVAYGTEQILIILATISAAAFWYSIPIAVGVLILLLALILSYRQIIYAYPQGGGAYIVSKENLGEKPGLIAGGSLLVDYILTVAVSISAGTDAITSAFPALHDYHVPIAIFLVLVIMILNLRGLSESASILAYPVYLFVVALLVLIAVGLFKLMTGQIDQPAHHTSLGTPVAGITLFLLLKAFSSGCSALTGVEAISNAIPAFKNPPARNAARTLAMMGILLAILFSGITVLAYGYGTAPKPDETVVSQIASETFGRNVFYYVIQGVTSLILVLAANTGFSAFPQLAFNLARDQYMPRMFTVRGDRLGFSNGIIFLGFASIVLIILFGGQTEHLIPLYAVGVFIPFTLSQTGMCMKWIKQKPKGWIGKMLINSCGALISFMVLSILFVTKFNVVWPVLIFMPIVVLLFFAIKNHYTAVGEQLRIVDKEPEEIKGTVVIVPVAGVTTVVQKSIHYAKSLSDQVIAVHVSFDREQEKKFEKRWEELNNGVRLVTLHSSYRSLVHPFDKFLETVEAKAKKEQFSVMVLFPQFITKKRWHTILHNQSAFLLRVRLFWKKDIMVATLPYHFKK
notes: KimA, K+/H+ symporter of the KUP family, Bacillus subtilis; expressed from pB24KimA; residues 30-606 are compared in the structures (TMD 30-462, cytosolic domain 462-606); Homodimer with swapped cytosolic domains; A ten-fold molar excess of c-di-AMP was added after purification; The construct has a C-terminal HRV-3C protease site; No cleavage is described for the DDM sample; also called KimA WT; …
binding result [6]: binds

B2: K+/H+ symporter KimA from B. subtilis, reconstituted in amphipols, with bound c-di-AMP (natural protein)
chain: MYHSIKRFLIGKPLKSQAAGEQKLTKLKALAMLSSDALSSVAYGTEQILIILATISAAAFWYSIPIAVGVLILLLALILSYRQIIYAYPQGGGAYIVSKENLGEKPGLIAGGSLLVDYILTVAVSISAGTDAITSAFPALHDYHVPIAIFLVLVIMILNLRGLSESASILAYPVYLFVVALLVLIAVGLFKLMTGQIDQPAHHTSLGTPVAGITLFLLLKAFSSGCSALTGVEAISNAIPAFKNPPARNAARTLAMMGILLAILFSGITVLAYGYGTAPKPDETVVSQIASETFGRNVFYYVIQGVTSLILVLAANTGFSAFPQLAFNLARDQYMPRMFTVRGDRLGFSNGIIFLGFASIVLIILFGGQTEHLIPLYAVGVFIPFTLSQTGMCMKWIKQKPKGWIGKMLINSCGALISFMVLSILFVTKFNVVWPVLIFMPIVVLLFFAIKNHYTAVGEQLRIVDKEPEEIKGTVVIVPVAGVTTVVQKSIHYAKSLSDQVIAVHVSFDREQEKKFEKRWEELNNGVRLVTLHSSYRSLVHPFDKFLETVEAKAKKEQFSVMVLFPQFITKKRWHTILHNQSAFLLRVRLFWKKDIMVATLPYHFKK
notes: KimA, K+/H+ symporter of the KUP family, Bacillus subtilis; expressed from pB24KimA; released from the Ni-NTA beads by cleavage at the C-terminal HRV-3C protease site; Homodimer with swapped cytosolic domains, upright arrangement of the transmembrane domains; Residues of the 3C site probably remain at the C-terminus after cleavage; also called KimA in amphipols; not shown: His tag (from the …)
binding result [7]: binds
